Test results from ChEMBL document CHEMBL4334464, “From Phenylthiazoles to Phenylpyrazoles: Broadening the Antibacterial Spectrum toward Carbapenem-Resistant Bacteria” (J Med Chem, 2019).
≈ marks a conversion by molar mass, not a printed value. Calls of active or inactive are those of the source. No cut-off for these calls is given here.

Key:
Format in all cases: functional
Staphylococcus aureus [1] = assay: Antibacterial activity against methicillin-resistant Staphylococcus aureus NRS384-USA300 clinical isolates after 18 to 20 hrs in aerobic condition by CLSI protocol based broth microdilution assay
Escherichia coli [2] = assay: Antimicrobial activity against Escherichia coli JW55031 harboring deltatolC mutant after 18 to 20 hrs in aerobic condition by CLSI protocol based broth microdilution assay
Acinetobacter baumannii [3] = assay: Antibacterial activity against Acinetobacter baumannii ATCC 19606 clinical isolates after 18 to 20 hrs in aerobic condition by CLSI-based broth microdilution assay; conditions: ATCC 19606 = CIP 70.34 = JCM 6841
Escherichia coli [4] = assay: Antibacterial activity against Escherichia coli BW25113 clinical isolates after 18 to 20 hrs in aerobic condition by CLSI-based broth microdilution assay
Klebsiella pneumoniae [5] = assay: Antibacterial activity against Klebsiella pneumoniae BAA-1706 clinical isolates after 18 to 20 hrs in aerobic condition by CLSI-based broth microdilution assay
Pseudomonas aeruginosa [6] = assay: Antibacterial activity against Pseudomonas aeruginosa ATCC 15442 clinical isolates after 18 to 20 hrs in aerobic condition by CLSI-based broth microdilution assay
Escherichia coli [7] = assay: Antibacterial activity against carbapenem-resistant Escherichia coli BAA-2452 clinical isolates after 18 to 20 hrs in aerobic condition by CLSI-based broth microdilution assay
Escherichia coli [8] = assay: Antibacterial activity against carbapenem-resistant Escherichia coli BAA-2469 clinical isolates after 18 to 20 hrs in aerobic condition by CLSI-based broth microdilution assay
Klebsiella pneumoniae [9] = assay: Antibacterial activity against carbapenem-resistant Klebsiella pneumoniae ATCC BAA-1705 clinical isolates after 18 to 20 hrs in aerobic condition by CLSI-based broth microdilution assay
Klebsiella pneumoniae [10] = assay: Antibacterial activity against carbapenem-resistant Klebsiella pneumoniae ATCC BAA-2146 clinical isolates after 18 to 20 hrs in aerobic condition by CLSI-based broth microdilution assay
Acinetobacter baumannii [11] = assay: Antibacterial activity against carbapenem-resistant Acinetobacter baumannii ATCC BAA 1605 clinical isolates after 18 to 20 hrs in aerobic condition by CLSI-based broth microdilution assay
Pseudomonas aeruginosa [12] = assay: Antibacterial activity against carbapenem-resistant Pseudomonas aeruginosa ATCC 1744 clinical isolates after 18 to 20 hrs in aerobic condition by CLSI-based broth microdilution assay
Staphylococcus aureus [13] = assay: Antibiofilm activity against methicillin-resistant Staphylococcus aureus NRS384-USA300 clinical isolates assessed as inhibition of biofilm formation at 0.5 times MIC incubated for 24 hrs by crystal violet staining based spectrophotometric method relative to control
Acinetobacter baumannii [14] = assay: Antibacterial activity against Acinetobacter baumannii ATCC BAA 1141 clinical isolates after 18 to 20 hrs in aerobic condition by CLSI-based broth microdilution assay
Acinetobacter baumannii [15] = assay: Antibacterial activity against Acinetobacter baumannii NR 17786 clinical isolates after 18 to 20 hrs in aerobic condition by CLSI-based broth microdilution assay
Acinetobacter baumannii [16] = assay: Antibacterial activity against Acinetobacter baumannii NR 17785 clinical isolates after 18 to 20 hrs in aerobic condition by CLSI-based broth microdilution assay
Escherichia coli [17] = assay: Antibacterial activity against Escherichia coli ATCC 25922 clinical isolates after 18 to 20 hrs in aerobic condition by CLSI-based broth microdilution assay
Escherichia coli [18] = assay: Antibacterial activity against Escherichia coli ATCC 35150 clinical isolates after 18 to 20 hrs in aerobic condition by CLSI-based broth microdilution assay
[19] = test system: Enterobacter cloacae subsp. cloacae; assay: Antibacterial activity against Enterobacter cloacae subsp. cloacae ATCC BAA-1143 clinical isolates after 18 to 20 hrs in aerobic condition by CLSI-based broth microdilution assay
Klebsiella pneumoniae [20] = assay: Antibacterial activity against Klebsiella pneumoniae BAA-1144 clinical isolates after 18 to 20 hrs in aerobic condition by CLSI-based broth microdilution assay
Salmonella enterica = assay: Antibacterial activity against Salmonella enterica NR-170 clinical isolates after 18 to 20 hrs in aerobic condition by CLSI-based broth microdilution assay
Salmonella enteritidis [21] = assay: Antibacterial activity against Salmonella enteritidis ATCC 13076 clinical isolates after 18 to 20 hrs in aerobic condition by CLSI-based broth microdilution assay; conditions: Salmonella enterica subsp. enterica serovar Enteritidis
Salmonella enteritidis [22] = assay: Antibacterial activity against Salmonella enteritidis ATCC 14028 clinical isolates after 18 to 20 hrs in aerobic condition by CLSI-based broth microdilution assay; conditions: Salmonella enterica subsp. enterica serovar Enteritidis
Salmonella typhimurium = assay: Antibacterial activity against Salmonella typhimurium ATCC 700720 after 18 to 20 hrs in aerobic condition by CLSI-based broth microdilution assay; conditions: Salmonella enterica subsp. enterica serovar Typhimurium
Shigella flexneri = assay: Antibacterial activity against Shigella flexneri ATCC 9199 clinical isolates after 18 to 20 hrs in aerobic condition by CLSI-based broth microdilution assay

For `C/C(=N\NC(=N)N)c1cnn(-c2ccc(C#CC(C)(C)C)cc2)c1C`, the MIC (Staphylococcus aureus [1]) was 8 µg/mL (≈ 23.8 µM) and the MIC (Escherichia coli [2]) was 8 µg/mL (≈ 23.8 µM).

Molecule `CCN(CC)CC#Cc1ccc(-n2ncc(/C(C)=N/NC3=NCCN3)c2C)cc1` has an MIC (Staphylococcus aureus [1]) of over 128 µg/mL and an MIC (Escherichia coli [2]) of over 128 µg/mL.

In the case of `C/C(=N\NC(=N)N)c1sc(-c2ccc(C#CC3CCCC3)cc2)nc1C`, the Activity (Escherichia coli [2]) is reported as “inactive”, the Activity (Acinetobacter baumannii [3]) is reported as “inactive” and the Activity (Escherichia coli [4]) is reported as “inactive”. For the same molecule, the Activity (Klebsiella pneumoniae [5]) was “inactive” and the Activity (Pseudomonas aeruginosa [6]) was “inactive”.

In the case of COLISTIN, the MIC (Escherichia coli [7]) is reported as 0.06 µg/mL, the MIC (Escherichia coli [8]) is reported as 0.06 µg/mL and the MIC (Klebsiella pneumoniae [9]) is reported as 0.125 µg/mL. For the same molecule, the MIC (Klebsiella pneumoniae [10]) was 0.25 µg/mL, the MIC (Acinetobacter baumannii [11]) was 0.25 µg/mL and the MIC (Pseudomonas aeruginosa [12]) was 1 µg/mL.

In the case of `C/C(=N\NC1=NCCN1)c1cnn(-c2ccc(C#CC3CCCCC3)cc2)c1C`, the MIC (Staphylococcus aureus [1]) is reported as 4 µg/mL (≈ 10.3 µM) and the MIC (Escherichia coli [2]) is reported as 4 µg/mL (≈ 10.3 µM).

Molecule `C/C(=N\NC(=N)N)c1cnn(-c2ccc(C#CC3CC3)cc2)c1C` has an MIC (Staphylococcus aureus [1]) of 8 µg/mL (≈ 25 µM) and an MIC (Escherichia coli [2]) of 8 µg/mL (≈ 25 µM).

For `CCCCCCC#Cc1ccc(-n2ncc(/C(C)=N/NC(=N)N)c2C)cc1`, the MIC (Staphylococcus aureus [1]) was 2 µg/mL (≈ 5.49 µM) and the MIC (Escherichia coli [2]) was 8 µg/mL (≈ 21.9 µM).

With `C/C(=N\NC1=NCCN1)c1cnn(-c2ccc(C#CC(C)(C)C)cc2)c1C` the MIC (Staphylococcus aureus [1]) was 16 µg/mL (≈ 44.1 µM), the MIC (Escherichia coli [2]) was 16 µg/mL (≈ 44.1 µM) and the “inhibition (INH)” value (Staphylococcus aureus [13]) was 62%.

`C[C@@H](O)[C@H]1C(=O)N2C(C(=O)O)=C(S[C@@H]3CN[C@H](C(=O)N(C)C)C3)[C@H](C)[C@H]12` [MEROPENEM] was tested, and the MIC (Escherichia coli [7]) was 32 µg/mL (≈ 83.4 µM), the MIC (Escherichia coli [8]) was 32 µg/mL (≈ 83.4 µM) and the MIC (Klebsiella pneumoniae [9]) was 32 µg/mL (≈ 83.4 µM). It also gave an MIC (Klebsiella pneumoniae [10]) of 64 µg/mL (≈ 167 µM), an MIC (Acinetobacter baumannii [11]) of 32 µg/mL (≈ 83.4 µM) and an MIC (Pseudomonas aeruginosa [12]) of 16 µg/mL (≈ 41.7 µM).

`CCCCC#Cc1ccc(-n2ncc(/C(C)=N/NC3=NCCN3)c2C)cc1` showed an MIC (Staphylococcus aureus [1]) of 2 µg/mL (≈ 5.52 µM) and an MIC (Escherichia coli [2]) of 4 µg/mL (≈ 11 µM).

`C/C(=N\NC(=N)N)c1cnn(-c2ccc(C#CC(C)(C)O)cc2)c1C` was tested, and the MIC (Staphylococcus aureus [1]) was 128 µg/mL (≈ 378 µM) and the MIC (Escherichia coli [2]) was 128 µg/mL (≈ 378 µM).

In the case of `C[C@@H](O)[C@H]1C(=O)N2C(C(=O)O)=C(SCCNC=N)C[C@H]12` [IMIPENEM ANHYDROUS], the MIC (Escherichia coli [7]) is reported as 32 µg/mL (≈ 107 µM), the MIC (Escherichia coli [8]) is reported as 32 µg/mL (≈ 107 µM) and the MIC (Klebsiella pneumoniae [9]) is reported as 32 µg/mL (≈ 107 µM). For the same molecule, the MIC (Klebsiella pneumoniae [10]) was 32 µg/mL (≈ 107 µM), the MIC (Acinetobacter baumannii [11]) was 32 µg/mL (≈ 107 µM) and the MIC (Pseudomonas aeruginosa [12]) was 16 µg/mL (≈ 53.4 µM).

With GENTAMICIN the MIC (Acinetobacter baumannii [3]) was 16 µg/mL, the MIC (Acinetobacter baumannii [14]) was 4 µg/mL and the MIC (Acinetobacter baumannii [15]) was 64 µg/mL. The MIC (Acinetobacter baumannii [16]) was over 64 µg/mL, the MIC (Escherichia coli [17]) was 1 µg/mL and the MIC (Escherichia coli [18]) was 1 µg/mL. For the same molecule, the MIC [19] was 1 µg/mL, the MIC (Klebsiella pneumoniae [5]) was 8 µg/mL and the MIC (Klebsiella pneumoniae [20]) was 16 µg/mL. For the same molecule, the MIC (Salmonella enterica) was 1 µg/mL, the MIC (Salmonella enteritidis [21]) was 1 µg/mL and the MIC (Salmonella enteritidis [22]) was 1 µg/mL. For the same molecule, the MIC (Salmonella typhimurium) was 1 µg/mL, the MIC (Shigella flexneri) was 1 µg/mL and the MIC (Pseudomonas aeruginosa [6]) was 2 µg/mL.
